{"source": "PubChem BioAssay AID2122", "about": "(Sanford-Burnham Center for Chemical Genomics, 2009)", "tested_on": "MIN6 mouse insulinoma cells, cytotoxicity counterscreen", "assay": "cytotoxicity in MIN6 insulinoma cells, dose response, cytotoxicity control, cell-based, mouse insulinoma (AID 2122)", "note": "“And” between values parts separate entries of the source, which are not always exact repeats. Equal values may be shown once.", "data": [{"smiles": "CN(C)c1ccnc2c[cH-]cc12.[Fe].c1ccc(-[c-]2[c-](-c3ccccc3)[c-](-c3ccccc3)[c-](-c3ccccc3)[c-]2-c2ccccc2)cc1", "note": "(stereo unspecified)", "values": [{"measurement": "IC50", "result": "4.89 µM and 2.24 µM"}]}]}
